Our source for the IC50 values is ChEMBL document CHEMBL4411264, “Methionine-Containing Rhabdopeptide/Xenortide-like Peptides from Heterologous Expression of the Biosynthetic Gene Cluster kj12ABC in Escherichia coli” (J Nat Prod, 2018).

Square brackets hold non-standard residues; d marks the D form. Peptide text beside a SMILES is read from it. * marks the point of attachment. NHPhenethyl = c1ccc(CCN*)cc1; NMeM = CN[C@@H](CCSC)C(=O)O; NMeV = CN[C@H](C(=O)O)C(C)C A value given as a limit tells only on which side of the number the result lay.

The test system of one assay is Trypanosoma cruzi. As to the kind of experiment: Antiparasitic activity against Trypanosoma cruzi Tulahuen C4 trypomastigotes infected in rat L6 cells after 96 hrs by CPRG/Nonidet reagent based photometric analysis. The assay is classed as functional, organism-based. As to conditions: Tulahuen C4, L6, 96 h.
In a further assay the test system is Plasmodium falciparum. As to the kind of experiment: Antiplasmodial activity against Plasmodium falciparum NF54 erythrocytic stage assessed as reduction in [3H]hypoxanthine incorporation preincubated for 48 hrs followed by [3H]hypoxanthine addition and measured after 24 hrs by liquid scintillation counting method. In kind it is functional, organism-based.
The subject of assay [1] is Trypanosoma brucei rhodesiense. The assay can be described thus: Antitrypanosomal activity against Trypanosoma brucei rhodesiense STIB900 bloodstream forms after 72 hrs by Alamar blue staining-based fluorometric analysis. In kind it is functional, organism-based. Conditions: STIB900, 72 h. (In general: The colour change of resazurin is a common sign of viable cells or microbes.)

The next assay deals with L6. The assay can be described thus: Cytotoxicity against rat L6 cells assessed as reduction in cell viability after 72 hrs by Alamar blue staining-based fluorometric analysis. Conditions: L6, 72 h.
The next assay relates to Leishmania donovani. The assay can be described thus: Antileishmanial activity against Leishmania donovani MHOM/ET/67/L82 axenic amastigotes after 72 hrs by alamar blue staining based fluorescence assay. In kind it is functional, organism-based. As to conditions: MHOM/ET/67/L82, 72 h.

A word on the IC50: it is the concentration at which inhibition is half-maximal. As for `CSCC[C@@H](C(=O)N[C@H](C(=O)N(C)[C@H](C(=O)N(C)[C@H](C(=O)NCCc1ccccc1)C(C)C)C(C)C)C(C)C)N(C)C(=O)[C@@H](N)C(C)C` (H-V[NMeM]V[NMeV][NMeV]-NHPhenethyl), the IC50 in the assay on Trypanosoma cruzi is 14.2 µM; in the assay with Plasmodium falciparum, 3.2 µM; in assay [1] it was 7.3 µM; with L6 it was 70.8 µM; with Leishmania donovani, 18.8 µM.
In the case of `CSCC[C@@H](C(=O)N(C)[C@H](C(=O)N(C)[C@H](C(=O)NCCc1ccccc1)C(C)C)C(C)C)N(C)C(=O)[C@@H](N)C(C)C` (H-V[NMeM][NMeV][NMeV]-NHPhenethyl), the IC50 in the assay with Trypanosoma cruzi is 62.9 µM; in the assay on Plasmodium falciparum, 7.9 µM; in assay [1], 8.5 µM; in the assay on L6, 75.2 µM; in the assay on Leishmania donovani, > 100 µM.
`CSCC[C@@H](C(=O)N(C)[C@H](C(=O)N(C)[C@H](C(=O)N(C)[C@H](C(=O)NCCc1ccccc1)C(C)C)C(C)C)C(C)C)N(C)C(=O)[C@@H](N)C(C)C` (H-V[NMeM][NMeV][NMeV][NMeV]-NHPhenethyl): the IC50 with Trypanosoma cruzi came out at 12.6 µM; with Plasmodium falciparum, 2.3 µM; in assay [1], 2.7 µM; with L6 it was 23.9 µM; with Leishmania donovani it was 92.3 µM.
For `CN[C@H](C(=O)N[C@H](C(=O)N(C)[C@@H](CCSC)C(=O)N(C)[C@H](C(=O)N(C)[C@H](C(=O)NCCc1ccccc1)C(C)C)C(C)C)C(C)C)C(C)C` (H-[NMeV]V[NMeM][NMeV][NMeV]-NHPhenethyl) the same measures were 25.4 µM, 4.1 µM, 5.7 µM, 31.3 µM and > 100 µM.
`CN[C@H](C(=O)N[C@H](C(=O)N(C)[C@H](C(=O)N(C)[C@@H](CCSC)C(=O)NCCc1ccccc1)C(C)C)C(C)C)C(C)C` (H-[NMeV]V[NMeV][NMeM]-NHPhenethyl): the IC50 was 75 µM with Trypanosoma cruzi; 10.9 µM in the assay with Plasmodium falciparum; 12.3 µM in assay [1]; > 100 µM in the assay on L6; > 100 µM with Leishmania donovani.
In the case of `CN[C@H](C(=O)N[C@H](C(=O)N(C)[C@H](C(=O)N(C)[C@H](C(=O)NCCc1ccccc1)C(C)C)C(C)C)C(C)C)C(C)C` (H-[NMeV]V[NMeV][NMeV]-NHPhenethyl), the IC50 in the assay with Trypanosoma cruzi was 69.4 µM; with Plasmodium falciparum it was 5.3 µM; in assay [1] it was 10.5 µM; in the assay with L6 it was 89.1 µM; in the assay on Leishmania donovani, > 100 µM.
For `CN[C@H](C(=O)N[C@H](C(=O)N(C)[C@H](C(=O)N(C)[C@H](C(=O)N(C)[C@@H](CCSC)C(=O)NCCc1ccccc1)C(C)C)C(C)C)C(C)C)C(C)C` (H-[NMeV]V[NMeV][NMeV][NMeM]-NHPhenethyl) the same measures were 53 µM, 6.6 µM, 4.3 µM, 71.2 µM and > 100 µM.
In the same order, the values of `CN[C@H](C(=O)N[C@H](C(=O)N(C)[C@H](C(=O)N(C)[C@H](C(=O)N(C)[C@H](C(=O)NCCc1ccccc1)C(C)C)C(C)C)C(C)C)C(C)C)C(C)C` (H-[NMeV]V[NMeV][NMeV][NMeV]-NHPhenethyl) are 26.2 µM, 4.6 µM, 1.4 µM, 56.2 µM and > 100 µM.
Turning to `O=C(Cn1ccnc1[N+](=O)[O-])NCc1ccccc1` [BENZNIDAZOLE], half-maximal inhibition in the assay with Trypanosoma cruzi (IC50) was put at 2.8 µM.
In the case of `COc1cc([C@@H]2c3cc4c(cc3[C@H](O)[C@H]3COC(=O)[C@H]23)OCO4)cc(OC)c1OC` [PODOFILOX], the IC50 with L6 was 0.01 µM.
